Measured values as given in paper PMC11928319 (Nature Plants, 2025).
Where no end group is shown, it is not given here.

Test system: filter-sterile supernatant of D. japonica MF79
Experiment: Peptide quantification by mass spectrometry after incubation in cell-free supernatant of D. japonica MF79
Assay type: in vitro ADME, Dyella japonica MF79
Settings: for peptide degradation in culture supernatant of wild-type D. japonica MF79 / peptide depletion in supernatant of the D. japonica MF79 gspD mutant: 1 µM peptide, 1 h, filter-sterile supernatant, XVM2 (OD600 = 0.6), LC-MS; for Log10(total_area_MS1) / percent_rel_axenic: incubation 1h; for Log10(total_area_MS1): MS1 precursor area; for percent_rel_axenic: peptide relative to axenic
Protocol: Elicitors were also supplemented into the medium prior to solidification at a final concentration of 1 µM. The flg22 ([…]) and AtPep1 ([…]) peptides were synthesized by EZbiolab. elf18^R179 (Ac-[…]) and elf18 (Ac-[…]) were synthesized by GenScript and EZbiolab, respectively. […] Bacteria were pelleted by centrifugation (11,600 g, 2 min), and the supernatant was sterile-filtered using filter units with MF-Millipore membrane (0.22 µm; Millex). The supernatant was incubated in boiling water for 30 min for heat treatment. Then, 25 ml of 1× MS with 20 g l^−1 Bacto Agar was mixed with 25 ml of supernatant prior to medium solidification and poured into square petri dishes. Sterilized seeds were placed on solidified agar in square petri dishes and vertically incubated for 14 days.
Bacterial supernatants were prepared as described in ‘Agar-based cultivation of axenic plants and co-cultivation with bacteria, bacterial supernatants and elicitors’. Here, additionally, the peptides dRGF1 (DYSNPGHHP-Hyp-RHN) and PSY1 (D-Y(SO3H)-[…]-Hyp-Hyp-S) synthesized by Scilight Peptide were incubated for 1 h with 1 µM of peptides in a plant cultivation light chamber (day-light condition; see ‘Plant cultivation conditions’), and the samples were frozen at −20 °C until further processing. For the investigation of AtPep1 degradation, the AtPep1 peptide was first modified by acetylation (six to seven times). To this end, 100-µl aliquots of peptides were treated with 10 µl of NHS acetate solution (1 M NHS acetate in 50% ACN/PBS) and incubated for 30 min with shaking. The reaction was quenched by the addition of 100 µl of 100 mM Tris-HCl (pH 8.5) and incubated for 10 min. For comparison of the non-acetylated peptides with the above-described modified AtPep1 peptides, aliquots of the non-acetylated peptides were processed as described above, but without the modifying NHS reaction. To this end, 100-µl aliquots of the sample were mixed with 100 µl of PBS buffer (137 mM NaCl, 2.7 mM KCl, 10 mM Na2HPO4, 1.8 mM KH2PO4; pH 7.4). The samples were then further diluted with 100 µl of 100 mM Tris-HCl (pH 8.5) and incubated for 10 min. All samples were acidified with 5 µl of TFA and desalted using StageTips with C18 Empore disk membranes (3M)[109]. The samples were dried in a vacuum evaporator and dissolved in 10 µl of 2% ACN (0.1% TFA for analysis).
The samples were analysed using an EASY-nLC 1200 (Thermo Fisher) coupled to a QExactive Plus mass spectrometer (Thermo Fisher). Peptides were separated on 16-cm frit-less silica emitters (New Objective, 75 µm inner diameter), packed in-house with reversed-phase ReproSil-Pur C18 AQ 1.9 µm resin (Dr. Maisch). Peptides were loaded on the column and eluted for 50 min using a segmented linear gradient of 5% to 95% solvent B (0 min, 5% B; 0–5 min, 15% B; 5–35 min, 50% B; 35–45 min, 95% B; 45–50 min, 95% B) (solvent A: 0% ACN, 0.1% FA; solvent B: 80% ACN, 0.1% FA) at a flow rate of 300 nl min^−1. Mass spectra were acquired in data-dependent acquisition mode with a TOP10 method. Mass spectrometry spectra were acquired in the Orbitrap analyser with a mass range of 300–1,500 m/z at a resolution of 70,000 full width at half maximum (FWHM) and a target value of 3 × 10^6 ions. Precursors were selected with an isolation window of 1.3 m/z. Higher-energy collision dissociation (HCD) fragmentation was performed at a normalized collision energy of 25. Tandem mass spectrometry (MS/MS) spectra were acquired with a target value of 5 × 10^5 ions at a resolution of 17,500 FWHM, a maximum injection time of 85 ms and a fixed first mass of 100 m/z. Peptides with a charge of 1 or greater than 6 or with an unassigned charge state were excluded from fragmentation for MS/MS; dynamic exclusion for 20 s prevented repeated selection of precursors. The raw data were analysed on the MS1 level using Skyline (https://skyline.ms)[110], and the results were filtered for the respective intact peptides, or the acetylated version in the case of AtPep1. […]

[1] = MF79 gspD mutant supernatant, XVM2 medium, replicate 1
[2] = MF79 gspD mutant supernatant, XVM2 medium, replicate 2
[3] = MF79 gspD mutant supernatant, XVM2 medium, replicate 3
[4] = MF79 supernatant, XVM2 medium, replicate 1
[5] = MF79 supernatant, XVM2 medium, replicate 2
[6] = MF79 supernatant, XVM2 medium, replicate 3
[7] = axenic XVM2 medium control, replicate 2
[8] = axenic XVM2 medium control, replicate 3
[9] = axenic XVM2 medium control, replicate 1

ATKVKAKQRGKEKVSSGRPGQHN [AtPep1]
peptide degradation in culture supernatant of wild-type D. japonica MF79: similarly effective in degrading | peptide depletion in supernatant of the D. japonica MF79 gspD mutant: depleted | Log10(total_area_MS1) [1]: 0 | Log10(total_area_MS1) [2]: 0 | Log10(total_area_MS1) [3]: 0 | percent_rel_axenic [1]: 0% | percent_rel_axenic [2]: 0% | percent_rel_axenic [3]: 0% | Log10(total_area_MS1) [4]: 7.596 | Log10(total_area_MS1) [5]: 7.38 | Log10(total_area_MS1) [6]: 6.998 | percent_rel_axenic [4]: 0.3481% | percent_rel_axenic [5]: 0.2117% | percent_rel_axenic [6]: 0.0878% | Log10(total_area_MS1) [7]: 10.0991 | Log10(total_area_MS1) [8]: 9.961 | percent_rel_axenic [7]: 110.888% | percent_rel_axenic [8]: 80.7256%

Ac-SKEKFERTKPHVNVGTIG [elf18]
peptide degradation in culture supernatant of wild-type D. japonica MF79: similarly effective in degrading | peptide depletion in supernatant of the D. japonica MF79 gspD mutant: depleted | Log10(total_area_MS1) [1]: 7.363 | Log10(total_area_MS1) [2]: 7.327 | Log10(total_area_MS1) [3]: 7.195 | percent_rel_axenic [1]: 0.1126% | percent_rel_axenic [2]: 0.1036% | percent_rel_axenic [3]: 0.0764% | Log10(total_area_MS1) [4]: 8.052 | Log10(total_area_MS1) [5]: 7.627 | Log10(total_area_MS1) [6]: 7.56 | percent_rel_axenic [4]: 0.5496% | percent_rel_axenic [5]: 0.2067% | percent_rel_axenic [6]: 0.1772% | Log10(total_area_MS1) [9]: 10.4148 | Log10(total_area_MS1) [7]: 10.2259 | Log10(total_area_MS1) [8]: 10.2716 | percent_rel_axenic [9]: 126.772% | percent_rel_axenic [7]: 82.063% | percent_rel_axenic [8]: 91.1647%

QRLSTGSRINSAKDDAAGLQIA [flg22]
peptide degradation in culture supernatant of wild-type D. japonica MF79: similarly effective in degrading | peptide depletion in supernatant of the D. japonica MF79 gspD mutant: depleted | Log10(total_area_MS1) [1]: 0 | Log10(total_area_MS1) [2]: 0 | Log10(total_area_MS1) [3]: 0 | percent_rel_axenic [1]: 0% | percent_rel_axenic [2]: 0% | percent_rel_axenic [3]: 0% | Log10(total_area_MS1) [4]: 0 | Log10(total_area_MS1) [5]: 0 | Log10(total_area_MS1) [6]: 0 | percent_rel_axenic [4]: 0% | percent_rel_axenic [5]: 0% | percent_rel_axenic [6]: 0% | Log10(total_area_MS1) [9]: 7.6416 | Log10(total_area_MS1) [7]: 7.393 | Log10(total_area_MS1) [8]: 7.844 | percent_rel_axenic [9]: 94.9639% | percent_rel_axenic [7]: 53.5357% | percent_rel_axenic [8]: 151.5%
